# Results reported in PubChem BioAssay AID256 (DTP/NCI, 2004).
# Where “and” joins values, the source holds several entries; their conditions need not be identical. Identical values can stand only once. Inconclusive results and toxic doses are left out.
# Tested on: CD2F1 mice, L1210 leukemia ip, survival T/C
# Assay: NCI In Vivo Anticancer Drug Screen. Data for tumor model L1210 Leukemia (intraperitoneal) in CD2F1 (CDF1) mice
# Settings: higher = longer survival
# Method in brief: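 Transplantable tumor in mice; compound-treated vs vehicle-treated groups. Read-out = treated/control ratio of the measured endpoint.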
# [1] = endpoint: mean survival time, dose: 50.0 mg/kg/injection, schedule: Q04DX003 (ip), vehicle: saline with Tween-80
smiles,measurement,setting,value
Cc1c2ccncc2c(C)c2c1[nH]c1ccccc12,T/C,"endpoint: mean survival time, dose: 2.0 mg/kg/injection, schedule: Q01DX009 (ip), vehicle: saline with Tween-80",113 % of control and 114 % of control and 105 % of control
same,T/C,"endpoint: mean survival time, dose: 3.13 mg/kg/injection, schedule: Q01DX009 (ip), vehicle: water",119 % of control
same,T/C,"endpoint: mean survival time, dose: 4.0 mg/kg/injection, schedule: Q01DX009 (ip), vehicle: saline with Tween-80",122 % of control and 124 % of control
same,T/C,"endpoint: mean survival time, dose: 6.25 mg/kg/injection, schedule: Q01DX009 (ip), vehicle: other",157 % of control
same,T/C,"endpoint: mean survival time, dose: 6.25 mg/kg/injection, schedule: Q01DX009 (ip), vehicle: water",151 % of control
same,T/C,"endpoint: mean survival time, dose: 6.25 mg/kg/injection, schedule: Q01DX009 (oral), vehicle: other",116 % of control
same,T/C,"endpoint: mean survival time, dose: 6.25 mg/kg/injection, schedule: Q01DX009 (oral), vehicle: saline",117 % of control
same,T/C,"endpoint: mean survival time, dose: 6.25 mg/kg/injection, schedule: Q01DX009 (oral), vehicle: water",123 % of control
same,T/C,"endpoint: mean survival time, dose: 6.25 mg/kg/injection, schedule: Q04DX003 (ip), vehicle: other",112 % of control
same,T/C,"endpoint: mean survival time, dose: 6.25 mg/kg/injection, schedule: Q04DX003 (ip), vehicle: water",108 % of control
same,T/C,"endpoint: mean survival time, dose: 10.0 mg/kg/injection, schedule: Q01DX001 (ip), vehicle: water",104 % of control
same,T/C,"endpoint: mean survival time, dose: 10.0 mg/kg/injection, schedule: Q01DX009 (ip), vehicle: saline with Tween-80",153 % of control
same,T/C,"endpoint: mean survival time, dose: 10.0 mg/kg/injection, schedule: Q04DX003 (ip), vehicle: saline with Tween-80",123 % of control
same,T/C,"endpoint: mean survival time, dose: 12.5 mg/kg/injection, schedule: Q01DX009 (ip), vehicle: other",198 % of control
same,T/C,"endpoint: mean survival time, dose: 12.5 mg/kg/injection, schedule: Q01DX009 (ip), vehicle: saline",180 % of control
same,T/C,"endpoint: mean survival time, dose: 12.5 mg/kg/injection, schedule: Q01DX009 (ip), vehicle: water",208 % of control
same,T/C,"endpoint: mean survival time, dose: 12.5 mg/kg/injection, schedule: Q01DX009 (oral), vehicle: saline",109 % of control
same,T/C,"endpoint: mean survival time, dose: 12.5 mg/kg/injection, schedule: Q04DX003 (ip), vehicle: distilled water + Tween-80",111 % of control
same,T/C,"endpoint: mean survival time, dose: 12.5 mg/kg/injection, schedule: Q04DX003 (ip), vehicle: saline with Tween-80",123 % of control
same,T/C,"endpoint: mean survival time, dose: 12.5 mg/kg/injection, schedule: Q04DX003 (ip), vehicle: water",122 % of control and 124 % of control
same,T/C,"endpoint: mean survival time, dose: 12.5 mg/kg/injection, schedule: Q04DX003 (oral), vehicle: other",103 % of control and 108 % of control
same,T/C,"endpoint: mean survival time, dose: 12.5 mg/kg/injection, schedule: Q04DX003 (oral), vehicle: saline",113 % of control and 107 % of control
same,T/C,"endpoint: mean survival time, dose: 12.5 mg/kg/injection, schedule: Q04DX003 (oral), vehicle: water",114 % of control and 109 % of control
same,T/C,"endpoint: mean survival time, dose: 20.0 mg/kg/injection, schedule: Q01DX001 (ip), vehicle: water",104 % of control
same,T/C,"endpoint: mean survival time, dose: 20.0 mg/kg/injection, schedule: Q01DX009 (ip), vehicle: saline with Tween-80",188 % of control and 205 % of control
same,T/C,"endpoint: mean survival time, dose: 20.0 mg/kg/injection, schedule: Q04DX003 (ip), vehicle: saline with Tween-80",157 % of control
same,T/C,"endpoint: mean survival time, dose: 25.0 mg/kg/injection, schedule: Q01DX009 (ip), vehicle: other",118 % of control
same,T/C,"endpoint: mean survival time, dose: 25.0 mg/kg/injection, schedule: Q01DX009 (ip), vehicle: saline",218 % of control
same,T/C,"endpoint: mean survival time, dose: 25.0 mg/kg/injection, schedule: Q01DX009 (ip), vehicle: water",100 % of control
same,T/C,"endpoint: mean survival time, dose: 25.0 mg/kg/injection, schedule: Q01DX009 (oral), vehicle: other",163 % of control
same,T/C,"endpoint: mean survival time, dose: 25.0 mg/kg/injection, schedule: Q01DX009 (oral), vehicle: water",159 % of control
same,T/C,"endpoint: mean survival time, dose: 25.0 mg/kg/injection, schedule: Q04DX003 (ip), vehicle: distilled water + Tween-80",121 % of control
same,T/C,"endpoint: mean survival time, dose: 25.0 mg/kg/injection, schedule: Q04DX003 (ip), vehicle: saline",156 % of control
same,T/C,"endpoint: mean survival time, dose: 25.0 mg/kg/injection, schedule: Q04DX003 (ip), vehicle: water",157 % of control and 190 % of control
same,T/C,"endpoint: mean survival time, dose: 25.0 mg/kg/injection, schedule: Q04DX003 (oral), vehicle: other",116 % of control
same,T/C,"endpoint: mean survival time, dose: 25.0 mg/kg/injection, schedule: Q04DX003 (oral), vehicle: saline",116 % of control and 118 % of control
same,T/C,"endpoint: mean survival time, dose: 25.0 mg/kg/injection, schedule: Q04DX003 (oral), vehicle: water",116 % of control
same,T/C,"endpoint: mean survival time, dose: 32.0 mg/kg/injection, schedule: Q01DX009 (ip), vehicle: saline with Tween-80",182 % of control
same,T/C,"endpoint: mean survival time, dose: 40.0 mg/kg/injection, schedule: Q01DX009 (ip), vehicle: saline with Tween-80",153 % of control
same,T/C,"endpoint: mean survival time, dose: 40.0 mg/kg/injection, schedule: Q04DX003 (ip), vehicle: saline with Tween-80",182 % of control and 202 % of control
same,T/C,"endpoint: mean survival time, dose: 50.0 mg/kg/injection, schedule: Q01DX009 (ip), vehicle: other",92 % of control
same,T/C,"endpoint: mean survival time, dose: 50.0 mg/kg/injection, schedule: Q01DX009 (ip), vehicle: saline",185 % of control
same,T/C,"endpoint: mean survival time, dose: 50.0 mg/kg/injection, schedule: Q01DX009 (ip), vehicle: water",87 % of control
same,T/C,"endpoint: mean survival time, dose: 50.0 mg/kg/injection, schedule: Q01DX009 (oral), vehicle: saline",152 % of control
same,T/C,"endpoint: mean survival time, dose: 50.0 mg/kg/injection, schedule: Q01DX009 (oral), vehicle: water",107 % of control
same,T/C,"endpoint: mean survival time, dose: 50.0 mg/kg/injection, schedule: Q04DX003 (ip), vehicle: distilled water + Tween-80",156 % of control
same,T/C,[1],119 % of control
same,T/C,"endpoint: mean survival time, dose: 50.0 mg/kg/injection, schedule: Q04DX003 (ip), vehicle: saline",177 % of control
same,T/C,"endpoint: mean survival time, dose: 50.0 mg/kg/injection, schedule: Q04DX003 (ip), vehicle: water",186 % of control
same,T/C,"endpoint: mean survival time, dose: 50.0 mg/kg/injection, schedule: Q04DX003 (oral), vehicle: other",153 % of control
same,T/C,"endpoint: mean survival time, dose: 50.0 mg/kg/injection, schedule: Q04DX003 (oral), vehicle: saline",167 % of control
same,T/C,"endpoint: mean survival time, dose: 50.0 mg/kg/injection, schedule: Q04DX003 (oral), vehicle: water",152 % of control and 158 % of control
same,T/C,"endpoint: mean survival time, dose: 64.0 mg/kg/injection, schedule: Q01DX009 (ip), vehicle: saline with Tween-80",120 % of control and 102 % of control and 107 % of control
same,T/C,"endpoint: mean survival time, dose: 80.0 mg/kg/injection, schedule: Q01DX001 (ip), vehicle: water",162 % of control
same,T/C,"endpoint: mean survival time, dose: 100.0 mg/kg/injection, schedule: Q01DX001 (ip), vehicle: other",205 % of control
same,T/C,"endpoint: mean survival time, dose: 100.0 mg/kg/injection, schedule: Q01DX009 (oral), vehicle: saline",94 % of control
same,T/C,"endpoint: mean survival time, dose: 100.0 mg/kg/injection, schedule: Q04DX003 (ip), vehicle: distilled water + Tween-80",163 % of control and 177 % of control
same,T/C,"endpoint: mean survival time, dose: 100.0 mg/kg/injection, schedule: Q04DX003 (ip), vehicle: saline",216 % of control
same,T/C,"endpoint: mean survival time, dose: 100.0 mg/kg/injection, schedule: Q04DX003 (oral), vehicle: saline",163 % of control and 179 % of control
same,T/C,"endpoint: mean survival time, dose: 200.0 mg/kg/injection, schedule: Q01DX001 (ip), vehicle: other",224 % of control
same,T/C,"endpoint: mean survival time, dose: 200.0 mg/kg/injection, schedule: Q04DX003 (ip), vehicle: distilled water + Tween-80",113 % of control and 104 % of control
same,T/C,"endpoint: mean survival time, dose: 200.0 mg/kg/injection, schedule: Q04DX003 (oral), vehicle: other",113 % of control
same,T/C,"endpoint: mean survival time, dose: 200.0 mg/kg/injection, schedule: Q04DX003 (oral), vehicle: saline",122 % of control and 102 % of control
same,T/C,"endpoint: mean survival time, dose: 400.0 mg/kg/injection, schedule: Q01DX001 (ip), vehicle: other",186 % of control
same,T/C,"endpoint: mean survival time, dose: 400.0 mg/kg/injection, schedule: Q04DX003 (oral), vehicle: other",96 % of control
same,T/C,"endpoint: median survival time, dose: 10.0 mg/kg/injection, schedule: Q01DX001 (ip), vehicle: water",106 % of control
same,T/C,"endpoint: median survival time, dose: 20.0 mg/kg/injection, schedule: Q01DX001 (ip), vehicle: water",117 % of control
same,T/C,"endpoint: median survival time, dose: 80.0 mg/kg/injection, schedule: Q01DX001 (ip), vehicle: water",153 % of control
Cc1ccc(NC(=O)OCCSCCOC(=O)Nc2ccc(C)cc2)cc1,T/C,"endpoint: mean survival time, dose: 100.0 mg/kg/injection, schedule: Q04DX003 (ip), vehicle: other",93 % of control
same,T/C,"endpoint: mean survival time, dose: 200.0 mg/kg/injection, schedule: Q04DX003 (ip), vehicle: other",96 % of control
same,T/C,"endpoint: mean survival time, dose: 400.0 mg/kg/injection, schedule: Q04DX003 (ip), vehicle: other",93 % of control
CCCCCCCCCCCCS,T/C,"endpoint: mean survival time, dose: 25.0 mg/kg/injection, schedule: Q04DX003 (ip), vehicle: saline with Tween-80",101 % of control
same,T/C,[1],97 % of control
same,T/C,"endpoint: mean survival time, dose: 100.0 mg/kg/injection, schedule: Q04DX003 (ip), vehicle: saline with Tween-80",100 % of control and 108 % of control
same,T/C,"endpoint: mean survival time, dose: 200.0 mg/kg/injection, schedule: Q04DX003 (ip), vehicle: saline with Tween-80",91 % of control
same,T/C,"endpoint: mean survival time, dose: 400.0 mg/kg/injection, schedule: Q04DX003 (ip), vehicle: saline with Tween-80",91 % of control
